# Measurements taken from paper PMC4865845, “A human genome-wide loss-of-function screen identifies effective chikungunya antiviral drugs” (Nature Communications, 2016).
# Where two headings read alike, the source gives them in different places.
# Experiments:
# CHIKV [1] = experiment: microbe, parasite or virus in culture; type: cell-based, chikungunya virus; settings: HEK-293 cells pretreated with dilutions of each drug, CHIKV-GFP, 18 h p.i.
# HEK-293 cells = experiment: Cell viability, Cell Proliferation Reagent WST-1; type: cell-based, human; settings: read-out: WST-1 IC50
# Procedure: To exclude the possible cytotoxic effects, all compounds were additionally tested using the ‘Cell Proliferation Reagent WST-1' (Roche Diagnostics). HEK-293 cells were treated with the same concentrations of the various substances and 18 h later WST-1 was added. Readout was conducted using the EnVision Multilabel Reader (PerkinElmer).
# CLK1 = CLK1 (Homo sapiens, UniProt P49759); experiment: CLK1 inhibition by capillary electrophoresis in a microfluidic chip system (LabChip3000); type: biochemical
# Sequence of CLK1 (P49759 whole entry): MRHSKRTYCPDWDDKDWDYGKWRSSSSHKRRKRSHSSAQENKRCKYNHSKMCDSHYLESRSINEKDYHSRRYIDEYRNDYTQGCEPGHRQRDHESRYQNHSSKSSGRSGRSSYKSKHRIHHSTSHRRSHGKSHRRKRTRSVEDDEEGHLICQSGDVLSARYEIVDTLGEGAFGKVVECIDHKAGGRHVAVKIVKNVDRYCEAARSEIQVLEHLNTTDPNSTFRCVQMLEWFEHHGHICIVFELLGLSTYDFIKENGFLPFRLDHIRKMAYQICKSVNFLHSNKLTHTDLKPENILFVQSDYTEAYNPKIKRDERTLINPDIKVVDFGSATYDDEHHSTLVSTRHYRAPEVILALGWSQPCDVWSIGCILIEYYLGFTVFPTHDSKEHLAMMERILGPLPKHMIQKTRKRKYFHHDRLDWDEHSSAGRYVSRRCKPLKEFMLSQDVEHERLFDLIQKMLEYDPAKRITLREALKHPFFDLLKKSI
# HeLa cells [2] = experiment: Real-time cell toxicity assay (xCELLigence)
# CHIKV replicon = CHIKV replicon dual-luciferase assay (genomic and subgenomic vRNA expression); type: cell-based, chikungunya virus; settings: HeLa cells, inhibitor from 1 h p.i., read 8 h p.i.
# CHIKV C21 [3] = experiment: Single-cycle CHIKV C21 infection, drug 2 h before or 2 h after infection (flow cytometry of capsid; supernatant infectivity on Vero cells); type: cell-based, chikungunya virus
# HeLa cells [4] = experiment: Cell viability, CellTiter-Glo kit; settings: end of the 1 h infection + 7 h treatment experiment
# CHIKV C21 [5] = experiment: Quantitative RT-PCR of cell- and supernatant-associated vRNA; type: cell-based, chikungunya virus; settings: HeLa; for vRNA synthesis (cell-associated vRNA) / viral release in the supernatants (supernatant-associated vRNA): CHIKV C21 MOI 50 for 1 h, then drug 7 h: cerulenin 50 μM, TOFA 25 μM, pimozide 10 μM, W7 20 μM, tivozanib 5 μM; for vRNA replication, delayed treatment / viral release, delayed treatment: CHIKV-infected, drugs from 6 to 8 h p.i.
# CHIKV C21 [6] = experiment: Intradermal CHIKV infection model of neonatal mice; settings: for impact on mouse growth: neonatal mice
# [7] = tested on: herpes simplex type 1 strain KOS (HSV-1); type: cell-based, herpes simplex virus 1; settings: HEK-293 cells pretreated 2 h, Fig. 4
# CHIKV C21 [8] = type: in vivo, C57BL/6 mice; settings: adult mice pretreated at least 3 days (pimozide 20 mg kg−1 per os; TOFA 25 mg kg−1 i.p.), 18 h p.i.
# CHIKV [9] = type: cell-based, chikungunya virus
# [10] = HEK-293 cell viability, 18 h, * = treatment induced <50% cell death
# [11] = 0.5 mg kg−1 per os daily from day 7, infected at day 9, continued 21 days
molecule,measurement,setting,value
O=c1cc(-c2ccccc2)oc2ccc(O)cc12 [6-Hydroxyflavone],IC50,"CHIKV [1]; Chikungunya virus, HEK293",2600 nM
same,IC50,"HEK-293 cells; Homo sapiens, HEK293, 18 h",> 60 µM
C=CC/C=C\C/C=C\CCCCCCCc1cccc(O)c1C(=O)O [(15:3)-Anacardic acid],IC50,CHIKV [1],580 nM
same,IC50,HEK-293 cells; [10],2.68 µM
O=C1Cc2c([nH]c3ccc([N+](=O)[O-])cc23)-c2ccccc2N1 [Alsterpaullone],IC50,"CHIKV [1]; Chikungunya virus, HEK293",2 nM
same,IC50,"HEK-293 cells; Homo sapiens, HEK293, 18 h",44.4 µM
"CCCCn1c2cc(OC)c(Cl)cc2c2ccnc(C)c21 [AnnH14, 9-butyl-6-chloro-7-methoxy-1-methyl-9H-pyrido[3,4-b]indole]",IC50,CLK1,5020 nM
same,IC50,"CHIKV [1]; Chikungunya virus, HEK293",1550 nM
same,IC50,"HEK-293 cells; Homo sapiens, HEK293, 18 h",10.6 µM
"COc1ccc2c(c1)[nH]c1c(/C=C/c3ccccc3)nccc12 [AnnH18, (E)-7-methoxy-1-(2-phenylethen-1-yl)-9H-pyrido[3,4-b]indole]",IC50,CLK1,575 nM
same,IC50,"CHIKV [1]; Chikungunya virus, HEK293",1020 nM
same,IC50,"HEK-293 cells; Homo sapiens, HEK293, 18 h",9.19 µM
"C#CCn1c2c(Br)nccc2c2ccc(Cl)c(Cl)c21 [AnnH80, 1-bromo-7,8-dichloro-9-(prop-2-yn-1-yl)-9H-pyrido[3,4-b]indole]",IC50,CLK1,862 nM
same,melting point,,190 to 193 °C
COc1ccc(-c2ccccc2)cc1NS(=O)(=O)c1cc(Cl)cc(Cl)c1O [BMS-303141],effect on cell viability,HeLa cells [2],no deleterious effect on cell viability
same,genomic and subgenomic vRNA synthesis,CHIKV replicon,significant and dose-dependent reduction
CO/C1=C\C(C)=C\[C@@H](C)[C@@H](O)[C@@H](C)C/C(C)=C/C=C/[C@H](OC)[C@@H]([C@@H](C)[C@@H](O)[C@H](C)[C@@]2(O)C[C@@H](O)[C@H](C)[C@@H](C(C)C)O2)OC1=O [Bafilomycin],stage of the viral life cycle affected,"CHIKV C21 [3]; single-cycle CHIKV infection, treatment before or after viral entry",specifically blocked CHIKV entry
same,IC50,CHIKV [1],0.334 nM
same,IC50,HEK-293 cells; [10],0.003 µM
C/C=C/C/C=C/CCC(=O)[C@H]1O[C@H]1C(N)=O [Cerulenin],effect on cell viability,HeLa cells [2],no deleterious effect on cell viability
same,IC50,"CHIKV [1]; Chikungunya virus, HEK293",3000 nM
same,IC50,"HEK-293 cells; Homo sapiens, HEK293, 18 h",7.57 µM
same,cell toxicity,HeLa cells [4],no detectable cell toxicity
same,genomic and subgenomic vRNA synthesis,CHIKV replicon,significant and dose-dependent reduction
same,vRNA synthesis (cell-associated vRNA),CHIKV C21 [5],significantly reduced vRNA synthesis
same,viral release in the supernatants (supernatant-associated vRNA),CHIKV C21 [5],strongly inhibited viral release
same,"vRNA replication, delayed treatment",CHIKV C21 [5],only a minor impact on vRNA replication
same,"viral release, delayed treatment",CHIKV C21 [5],major defect in viral release
CCOC(=O)C1=C(C)NC(C)=C(C(=O)OC)C1c1cccc(Cl)c1Cl (stereo not drawn) [Felodipine],IC50,"CHIKV [1]; Chikungunya virus, HEK293",3240 nM
same,IC50,"HEK-293 cells; Homo sapiens, HEK293, 18 h",12.1 µM
Cc1ccc(F)c(NC(=O)Nc2ccc(-c3cccc4[nH]nc(N)c34)cc2)c1 [Linifanib],IC50,"CHIKV [1]; Chikungunya virus, HEK293",2150 nM
same,IC50,"HEK-293 cells; Homo sapiens, HEK293, 18 h",> 60 µM
CCCCCCCCCCC[C@@H](C[C@@H]1OC(=O)[C@H]1CCCCCC)OC(=O)[C@H](CC(C)C)NC=O [Orlistat],IC50,"CHIKV [1]; Chikungunya virus, HEK293",820 nM
same,IC50,"HEK-293 cells; Homo sapiens, HEK293, 18 h",8.67 µM
Cc1ccc(Nc2nccc(N(C)c3ccc4c(C)n(C)nc4c3)n2)cc1S(N)(=O)=O [Pazopanib],IC50,"CHIKV [1]; Chikungunya virus, HEK293",130 nM
same,IC50,"HEK-293 cells; Homo sapiens, HEK293, 18 h",1.32 µM
OCCN1CCN(CCCN2c3ccccc3Sc3ccc(Cl)cc32)CC1 [Perphenazine],IC50,"CHIKV [1]; Chikungunya virus, HEK293",630 nM
same,IC50,"HEK-293 cells; Homo sapiens, HEK293, 18 h",24.2 µM
O=c1[nH]c2ccccc2n1C1CCN(CCCC(c2ccc(F)cc2)c2ccc(F)cc2)CC1 [Pimozide],impact on mouse growth,CHIKV C21 [6],detectable impact on mouse growth
same,antiviral effect on HSV-1,[7],antiviral effect
same,IC50,"CHIKV [1]; Chikungunya virus, HEK293",280 nM
same,IC50,"HEK-293 cells; Homo sapiens, HEK293, 18 h",19.2 µM
same,CHIKV titres in the footpad (replication),CHIKV C21 [8],significantly reduced replication
same,cell toxicity,HeLa cells [4],no detectable cell toxicity
same,vRNA synthesis (cell-associated vRNA),CHIKV C21 [5],significantly reduced vRNA synthesis
same,viral release in the supernatants (supernatant-associated vRNA),CHIKV C21 [5],strongly inhibited viral release
same,"vRNA replication, delayed treatment",CHIKV C21 [5],only a minor impact on vRNA replication
same,"viral release, delayed treatment",CHIKV C21 [5],major defect in viral release
CC(Cc1ccccc1)NCCC(c1ccccc1)c1ccccc1 (stereo not drawn) [Prenylamine],IC50,"CHIKV [1]; Chikungunya virus, HEK293",2390 nM
same,IC50,"HEK-293 cells; Homo sapiens, HEK293, 18 h",16.5 µM
CNC(=O)c1cc(Oc2ccc(NC(=O)Nc3ccc(Cl)c(C(F)(F)F)c3)cc2)ccn1 [Sorafenib],IC50,"CHIKV [1]; Chikungunya virus, HEK293",1110 nM
same,IC50,"HEK-293 cells; Homo sapiens, HEK293, 18 h",18.2 µM
COc1cc(N2CCC(N3CCN(C)CC3)CC2)ccc1Nc1ncc(Cl)c(Nc2ccccc2S(=O)(=O)C(C)C)n1 [TAE684],IC50,"CHIKV [1]; Chikungunya virus, HEK293",150 nM
same,IC50,"HEK-293 cells; Homo sapiens, HEK293, 18 h",2.07 µM
"CCCCCCCCCCCCCCOc1ccc(C(=O)O)o1 [TOFA, 5-tetradecyloxy-2-furoic acid]",impact on mouse growth,CHIKV C21 [6],detectable impact on mouse growth
same,effect on cell viability,HeLa cells [2],no deleterious effect on cell viability
same,IC50,"CHIKV [1]; Chikungunya virus, HEK293",150 nM
same,IC50,"HEK-293 cells; Homo sapiens, HEK293, 18 h",> 60 µM
same,CHIKV titres in the footpad (replication),CHIKV C21 [8],significantly reduced replication
same,cell toxicity,HeLa cells [4],no detectable cell toxicity
same,genomic and subgenomic vRNA synthesis,CHIKV replicon,significant and dose-dependent reduction
same,vRNA synthesis (cell-associated vRNA),CHIKV C21 [5],significantly reduced vRNA synthesis
same,viral release in the supernatants (supernatant-associated vRNA),CHIKV C21 [5],strongly inhibited viral release
same,"vRNA replication, delayed treatment",CHIKV C21 [5],only a minor impact on vRNA replication
same,"viral release, delayed treatment",CHIKV C21 [5],major defect in viral release
COc1cc2nccc(Oc3ccc(NC(=O)Nc4cc(C)on4)c(Cl)c3)c2cc1OC [Tivozanib],body weight gain,CHIKV C21 [6]; [11],positive impact on body weight gain
same,mortality of CHIKV-infected mice,CHIKV C21 [6]; [11],significant reduction in mortality
same,onset of paralysis,CHIKV C21 [6]; [11],protected from the onset of paralysis
same,CHIKV viral load in organs,"CHIKV C21 [6]; 3 days post infection, 0.5 mg kg−1 per os",significantly reduced CHIKV viral load
same,IC50,"CHIKV [1]; Chikungunya virus, HEK293",800 nM
same,IC50,"HEK-293 cells; Homo sapiens, HEK293, 18 h",8.34 µM
same,cell toxicity,HeLa cells [4],no detectable cell toxicity
same,vRNA synthesis (cell-associated vRNA),CHIKV C21 [5],significantly reduced vRNA synthesis
same,viral release in the supernatants (supernatant-associated vRNA),CHIKV C21 [5],strongly inhibited viral release
same,"vRNA replication, delayed treatment",CHIKV C21 [5],only a minor impact on vRNA replication
same,"viral release, delayed treatment",CHIKV C21 [5],major defect in viral release
KH-CB19,inhibition of CHIKV infection at early times p.i.,CHIKV C21 [3]; Supplementary Fig. 5a,incomplete inhibition
same,IC50,CHIKV [1],3360 nM
same,IC50,HEK-293 cells; [10],10.9 µM
s51652 (sense CCAGGCCCATTCTACAATA; chemistry not given here),Score_si4,CHIKV [9],0.04
s51653 (sense GCACCTTGCAGGATTGGAA; chemistry not given here),Score_si3,CHIKV [9],0.68
s194444 (sense GCTGCGTCTCCCTTCCAAA; chemistry not given here) [reference compound],Score_si4,CHIKV [9],-0.58
s194476 (sense GCATGCTGCTGGCAGATCA; chemistry not given here),Score_si2,CHIKV [9],1.47
s195060 (sense CCAGATCTATGAATTGGAA; chemistry not given here),Score_si2,CHIKV [9],1.92
s195061 (sense CTGTATGGCTTCTATATAA; chemistry not given here),Score_si4,CHIKV [9],1.03
s195093 (sense AGCTGTCCCTCTTTGCTGT; chemistry not given here) [reference compound],Score_si3,CHIKV [9],-0.16
s195094 (sense CCTCTTCCACCGCTACTTC; chemistry not given here) [reference compound],Score_si2,CHIKV [9],-0.76
s195100 (sense GGGTGAATGTAGACCCTGA; chemistry not given here),Score_si3,CHIKV [9],1.95
s195299 (sense ACACATATGTGATCAAGCT; chemistry not given here),Score_si4,CHIKV [9],0.72
s195642 (sense GGTGAGGACAAGTTCCAGT; chemistry not given here),Score_si3,CHIKV [9],0.49
s195643 (sense CCCTAGGCGCTGGATTTTG; chemistry not given here),Score_si4,CHIKV [9],0.23
s195938 (sense ATTTATCTCTGCATCGACA; chemistry not given here) [reference compound],Score_si3,CHIKV [9],-0.51
s195939 (sense GCGGCTGATTTATCTCTGC; chemistry not given here) [reference compound],Score_si4,CHIKV [9],-0.22
